This note sets out measurements from patent US20100075984A1, “DICARBONYLIC COMPOUNDS WITH ANTIBACTERIAL ACTIVITY” (LABORATORIOS SALVAT, S.A., priority 2006, published 2010).

In brackets after ≈: the same amount, converted by molar mass.

In test [1] the test system is Streptococcus faecalis (BCM-010). The test can be described thus: Antimicrobial activity, microdilution in microtiter plate (MIC). The test is classed as cell-based. To be noted: Streptococcus faecalis BCM-010 (SALVAT collection), two-fold serial dilutions, 96 well plates, incubation 24 h at 35° C.; for MIC: Enterococcus faecalis. On the procedure:
(§1) In order to assess the antimicrobial activity of the compounds of the present invention a method of microdilution in microtiter plate was used. The compounds were diluted in a nutritious medium and, subsequently, distributed by two-fold serial dilutions in 96 well plates. Then, plates were inoculated with a bacterial suspension. After incubation for 24 h at 35° C. the minimum inhibitory concentration (MIC) of the drug in μg/mL was determined as the lowest concentration of compound which inhibits the growth of the bacterium. Results included in table 7 illustrate the antimicrobial activity of some of the compounds of the present invention in comparison with thus obtained with two compounds (linezolid and eperezolid) of a known antimicrobial activity. The antimicrobial activity of the compound versus Streptococcus faecalis (BCM-010, strain designation as for SALVAT collection) and Staphylococcus aureus (BCM-012, strain designation as for SALVAT collection), respectively, is shown in the different columns.
In general terms: Broth dilution looks for growth in wells or tubes with falling amounts of substance.

For test [2], the system named is Staphylococcus aureus (BCM-012). Described as above. The test is classed as cell-based. To be noted: Staphylococcus aureus BCM-012 (SALVAT collection); two-fold serial dilutions, 96 well plates; incubation 24 h at 35° C. Here is the method: as §1

Broadly, the MIC is the smallest concentration in the dilution series that meets the test's criterion for growth inhibition. Turning to `CC(=O)NC[C@H]1CN(c2ccc(N3CCN(C(=O)CO)CC3)c(F)c2)C(=O)O1` [Eperezolid, eperezolid, reference compound], the values for the MIC in test [1] and in test [2] were 4 µg/mL (≈ 10.1 µM) and 2 µg/mL (≈ 5.07 µM), respectively.

Take `O=CNCC(=O)N1CCN(c2ccc(-c3cc(CNc4ccon4)on3)cc2F)CC1` [I_1]: the “BCM-010 MIC” value in test [1] is 2 µg/mL. Moreover, the “BCM-012 MIC” value in test [2] came out at 1 µg/mL.

On to `O=C(NCC(=O)N1CCN(c2ccc(-c3cc(CNc4ccon4)on3)cc2F)CC1)c1cccc(O)c1` [I_15], for which the “BCM-010 MIC” value in test [1] lay within 0.25 to 0.5 µg/mL. Further, the “BCM-012 MIC” value in test [2] fell in the range of 0.25 to 0.5 µg/mL.

`Nc1ccc(C(=O)NCC(=O)N2CCN(c3ccc(-c4cc(CNc5ccon5)on4)cc3F)CC2)c(O)c1` [I_32]: in test [1], the “BCM-010 MIC” value was in the range of 0.25 to 0.5 µg/mL. Also, the “BCM-012 MIC” value in test [2] was in the range of 0.25 to 0.5 µg/mL.

For `Cc1ncc(-c2cccc(C(=O)NCC(=O)N3CCN(c4ccc(-c5cc(CNc6ccon6)on5)cc4F)CC3)c2)s1` [I_51], the “BCM-010 MIC” value in test [1] was 1 µg/mL. Besides, the “BCM-012 MIC” value in test [2] is 1 µg/mL.

As for `O=C(NCC(=O)N1CCN(c2ccc(-c3cc(CNc4ccon4)on3)cc2F)CC1)c1ccc([N+](=O)[O-])o1` [I_58], the “BCM-010 MIC” value in test [1] fell in the range of 0.5 to 1 µg/mL. In test [2], the “BCM-012 MIC” value was 0.25 µg/mL.

Regarding `Cc1nc2cc(C(=O)NCC(=O)N3CCN(c4ccc(-c5cc(CNc6ccon6)on5)cc4F)CC3)ccc2n1CC1CC1` [I_82], the “BCM-010 MIC” value in test [1] came out at 2 µg/mL. In addition, in test [2], the “BCM-012 MIC” value was determined as 2 µg/mL.

For `C#CCn1c(C)nc2cc(C(=O)NCC(=O)N3CCN(c4ccc(-c5cc(CNc6ccon6)on5)cc4F)CC3)ccc21` [I_84], the “BCM-010 MIC” value in test [1] was 2 µg/mL. In addition, in test [2], the “BCM-012 MIC” value was 1 µg/mL.

On to `CC(=O)Nc1ccc(C(=O)NCC(=O)N2CCN(c3ccc(-c4cc(CNc5ccon5)on4)cc3F)CC2)cn1` [I_117], for which the “BCM-010 MIC” value in test [1] stood at 1 µg/mL. In test [2], the “BCM-012 MIC” value amounted to 1 µg/mL.

Take `CNCC(=O)NCC(=O)N1CCN(c2ccc(-c3cc(CNc4ccon4)on3)cc2F)CC1` [I_152]: the “BCM-010 MIC” value in test [1] came out at 2 µg/mL. Moreover, the “BCM-012 MIC” value in test [2] came out at 2 µg/mL.

As for `O=C(NC(C(=O)N1CCN(c2ccc(-c3cc(CNc4ccon4)on3)cc2F)CC1)c1ccccc1)c1ccc2[nH]cnc2c1` (centres unmarked) [I_153], the “BCM-010 MIC” value in test [1] was found to be 2 µg/mL. Besides, the “BCM-012 MIC” value in test [2] was determined as 2 µg/mL.

For `CN(CC(=O)N1CCN(c2ccc(-c3cc(CNc4ccon4)on3)cc2F)CC1)C(=O)c1ccc2[nH]cnc2c1` [I_155], the “BCM-010 MIC” value in test [1] turned out to be 2 µg/mL. Besides, the “BCM-012 MIC” value in test [2] came to 2 µg/mL.

On to `O=C(NCC(=O)N1CCN(c2c(F)cc(-c3cc(CNc4ccon4)on3)cc2F)CC1)c1ccc2cccc(O)c2n1` [I_160], for which the “BCM-010 MIC” value in test [1] came to 0.25 µg/mL. Also, the “BCM-012 MIC” value in test [2] was found to be 0.25 µg/mL.

Consider `Cc1ccc(C(=O)N[C@H](C(=O)N2CCN(c3ccc(-c4cc(CNc5ccon5)on4)cc3F)CC2)C(C)C)cn1` [I_170], for which, in test [1], the “BCM-010 MIC” value is 4 µg/mL. The “BCM-012 MIC” value in test [2] amounted to 4 µg/mL.

On to `C[C@@H](NC(=O)c1ncccc1N)C(=O)N1CCN(c2ccc(-c3cc(CNc4ccon4)on3)cc2F)CC1` [I_171], for which the “BCM-010 MIC” value in test [1] was determined as 1 µg/mL. Further, the “BCM-012 MIC” value in test [2] was 2 µg/mL.

In the case of `O=C(NCC(=O)N1CCN(c2ccc(-c3cc(CO)on3)cc2F)CC1)c1ccc2cccc(O)c2n1` [I_192], the “BCM-010 MIC” value in test [1] turned out to be 0.5 µg/mL. For the same molecule, the “BCM-012 MIC” value in test [2] worked out at 0.5 µg/mL.

Consider `Cc1ccc(C(=O)N[C@@H](C)C(=O)N2CCN(c3ccc(-c4cc(CO)on4)cc3F)CC2)cn1` [I_213], for which the “BCM-010 MIC” value in test [1] is 1 µg/mL. Besides, in test [2], the “BCM-012 MIC” value is 1 µg/mL.

With `O=C(NCC(=O)N1CCN(c2ccc(-c3cc(CNc4ccon4)on3)cc2F)CC1)Nc1ccc([N+](=O)[O-])cc1` [Ia_1, 1-[2-(4-{2-Fluoro-4-[5-(isoxazol-3-ylaminomethyl)isoxazol-3-yl]phenyl}piperazin-1-yl)-2-oxoethyl]-3-(4-nitrophenyl)urea], the minimal inhibitory concentration (MIC) in test [1] was 2 µg/mL (≈ 3.54 µM); in test [2] it was 1 µg/mL (≈ 1.77 µM).

As to `CC(=O)NC[C@H]1CN(c2ccc(N3CCOCC3)c(F)c2)C(=O)O1` [Linezolid, linezolid, reference compound], the MIC came out at 4 µg/mL (≈ 11.9 µM) in test [1] and 2 µg/mL (≈ 5.93 µM) in test [2].
